Measurements as given in patent publication US11154530B2, “Pharmaceutical composition for treating liver cancer, comprising tetraarsenic hexoxide crystalline polymorph” (CHEMAS CO., LTD., priority 2016, dated 2021).

What was measured:
[1] = test system: human liver cancer cell line H22 cells; assay: In vivo efficacy test in mice transplanted with H22 cells; details: from cancer volume vs cancer model group
Protocol: (§1) Human liver cancer cell line H22 cells (purchased from the Shanghai Cell Bank of Chinese Academy of Sciences) were incubated in RPMI-1640 medium supplemented with 10% FBS, 100 U/ml penicillin, and 100 μg/ml streptomycin in an incubator under conditions of 37° C., 5% CO2, and 95% air. The medium was exchanged every three days.
(§2) The mice were allowed free access to food and water, and were bred in a 12-hr light/12-hr dark cycle.
(§3) Out of the 50 mice, 10 mice were classified as the normal group, and the remaining 40 animals were subcutaneously inoculated with H22 cells at 1×10^7 cells per mouse, and bred for 7 days. […] 5-Fluorouracil (5-FU), which is used as an anticancer drug, was treated for a positive control group.
(§4) After the administration of the drug for each group, cancer sizes were measured daily using a Vernier caliper, and cancer volumes were calculated using the equation V=0.5×ab^2 (a is the longest diameter of cancer and b is the shortest diameter of cancer). In addition, the inhibition of cancer volume according to the number of days of administration was calculated by the following equation. Percentage of inhibition of cancer growth=(1−(sample treatment group/cancer model group))×100

[2] = as above; details: ICR mice with H22 cells
Protocol: as §1, §2, §3, §4

[3] = test system: human liver cancer cell line SMMC-7721 cells; assay: In vivo efficacy test in mice transplanted with SMMC-7721 cells; details: for Cancer weight: babl/c-nu mice with SMMC-7721 cells; for Percentage (%) of inhibition of cancer growth: from cancer weight vs cancer model group
Protocol: Human liver cancer cell line SMMC-7721 cells (purchased from the Shanghai Cell Bank of Chinese Academy of Sciences) were incubated in RPMI-1640 medium supplemented with 10% FBS, 50 U/ml penicillin, and 50 μg/ml streptomycin in an incubator under conditions of 37° C., 5% CO2, and 95% air. The medium was exchanged every three days.
as §2
The twenty five mice were subcutaneously inoculated into the neck site with SMMC-7721 cells at 2×10^7 cells per mouse, and bred for 7 days. […] 5-Fluorouracil (5-FU), which is used as an anticancer drug, was treated for a positive control group.
Cancer tissues were isolated from the mice after seven days of administration of the drug for each group, and visually observed. Cancer weights were measured. In addition, the inhibition of cancer growth was calculated on the basis of the measured weights of the cancer tissues by using the following equation. Percentage of inhibition of cancer growth=(1−(sample treatment group/cancer model group))×100

[4] = test system: human liver cancer cells SMMC-7721; assay: MTT cell proliferation assay, SMMC-7721 cells; type: cell-based
Protocol: (§5) Fetal bovine serum (FBS) and cell culture medium were prepared (Hyclone), and dimethyl sulfoxide (DMSO) and 3-(4,5-dimethyl-thiazol-2yl)-2,5-diphenyltetrazolium bromide (MTT, Amresco LLC, USC) were prepared.
(§6) As human cancer cell lines, human liver cancer cells SMMC-7721 and HCCLM3 were obtained from the Shanghai Cell Bank of Chinese Academy of Sciences. The SMMC-7721 cells were incubated in RPMI-1640 medium supplemented with 10% FBS, 50 U/ml penicillin, and 50 μg/ml streptomycin and the HCCLM3 cells were incubated in Dulbecco's modified Eagle's medium (DMEM) supplemented with 10% FBS, 100 U/ml penicillin, and 100 μg/ml streptomycin in a humidified incubator with 5% CO2 and 95% air. […]
(§7) The effects of Example 1 and Comparative Examples 1 to 3 on cell proliferation were assessed using MTT assay. […] All the crystals were completely dissolved by standing at room temperature for 15 minutes, and the absorbance was measured using a micro-plate reader at a wavelength of 570 nm (A570nm).
(§8) The absorbance value of the control group treated without the sample was calculated as 100, and the absorbance value of the treatment group treated with the sample, compared with that of the control group, was calibrated, and the percentage of inhibition of cell proliferation was calculated according to the following equation. […]
(§9) All data were expressed as mean±standard error of the mean (mean±SEM). […]

[5] = test system: human liver cancer cells HCCLM3; assay: MTT cell proliferation assay, HCCLM3 cells; type: cell-based
Protocol: as §5, §6, §7, §8, §9

[6] = Positive control group, 20 mg/kg oral daily, 5 days
[7] = Positive control group, 20 mg/kg oral daily, 7 days
[8] = Positive control group, 20 mg/kg oral daily, 9 days
[9] = Positive control group, 20 mg/kg oral daily, 11 days
[10] = Positive control group, 20 mg/kg oral daily for 7 days
[11] = Test Group 1, 4.5 mg/kg oral daily, 5 days
[12] = Test Group 1, 4.5 mg/kg oral daily, 7 days
[13] = Test Group 1, 4.5 mg/kg oral daily, 9 days
[14] = Test Group 1, 4.5 mg/kg oral daily, 11 days
[15] = Test Group 2, 2.25 mg/kg oral daily, 5 days
[16] = Test Group 2, 2.25 mg/kg oral daily, 7 days
[17] = Test Group 2, 2.25 mg/kg oral daily, 9 days
[18] = Test Group 2, 2.25 mg/kg oral daily, 11 days
[19] = Test Group 1, 4.5 mg/kg oral daily for 7 days
[20] = Test Group 2, 2.25 mg/kg oral daily for 7 days
[21] = Test Group 3, 1.125 mg/kg oral daily for 7 days

Molecule: O=c1[nH]cc(F)c(=O)[nH]1 [5-Fluorouracil, reference compound]
- Percentage (%) of inhibition of cancer growth [1, 6]: 26.16%
- Percentage (%) of inhibition of cancer growth [1, 7]: 46.73%
- Percentage (%) of inhibition of cancer growth [1, 8]: 52.15%
- Percentage (%) of inhibition of cancer growth [1, 9]: 63.48%
- Cancer volume according to number of days of administration [2, 6]: 165.62 mm^3
- Cancer volume according to number of days of administration [2, 7]: 212.78 mm^3
- Cancer volume according to number of days of administration [2, 8]: 318.07 mm^3
- Cancer volume according to number of days of administration [2, 9]: 661.97 mm^3
- Cancer weight [3, 10]: 0.72 ± 0.27 g
- Percentage (%) of inhibition of cancer growth [3, 10]: 32.5%

Molecule: tetraarsenic hexoxide [Example 1]
- Percentage of inhibition of SMMC-7721 cell proliferation compared with Comparative Example 1 ([4]; incubation for 48 hours and 72 hours, 0.625-80 μM, FIGS. 2A-B): higher
- Percentage of inhibition of SMMC-7721 cell proliferation compared with Comparative Example 2 or 3 ([4]; mixtures of Example 1 and Comparative Example 1 at 4:1 or 1:1, FIGS. 2A-B): higher
- Percentage (%) of inhibition of cancer growth [1, 11]: 25.06%
- Percentage (%) of inhibition of cancer growth [1, 12]: 40.36%
- Percentage (%) of inhibition of cancer growth [1, 13]: 41.50%
- Percentage (%) of inhibition of cancer growth [1, 14]: 51.42%
- Percentage (%) of inhibition of cancer growth [1, 15]: 3.36%
- Percentage (%) of inhibition of cancer growth [1, 16]: 24.23%
- Percentage (%) of inhibition of cancer growth [1, 17]: 41.54%
- Percentage (%) of inhibition of cancer growth [1, 18]: 45.52%
- Cancer volume according to number of days of administration [2, 11]: 168.09 mm^3
- Cancer volume according to number of days of administration [2, 12]: 238.22 mm^3
- Cancer volume according to number of days of administration [2, 13]: 388.85 mm^3
- Cancer volume according to number of days of administration [2, 14]: 880.55 mm^3
- Cancer volume according to number of days of administration [2, 15]: 216.75 mm^3
- Cancer volume according to number of days of administration [2, 16]: 302.66 mm^3
- Cancer volume according to number of days of administration [2, 17]: 388.56 mm^3
- Cancer volume according to number of days of administration [2, 18]: 987.61 mm^3
- Percentage of inhibition of HCCLM3 cell proliferation compared with Comparative Example 1 ([5]; incubation for 48 hours and 72 hours, 0.625-80 μM, FIGS. 3A-B): higher
- Percentage of inhibition of HCCLM3 cell proliferation compared with Comparative Example 2 or 3 ([5]; mixtures of Example 1 and Comparative Example 1 at 4:1 or 1:1, FIGS. 3A-B): higher
- Cancer weight [3, 19]: 0.65 ± 0.17 g
- Percentage (%) of inhibition of cancer growth [3, 19]: 39.7%
- Cancer weight [3, 20]: 0.70 ± 0.10 g
- Percentage (%) of inhibition of cancer growth [3, 20]: 34.3%
- Cancer weight [3, 21]: 0.77 ± 0.12 g
- Percentage (%) of inhibition of cancer growth [3, 21]: 28.0%
- Tumor tissue sizes (visual observation) ([3]; isolated cancer tissues after 7 days of oral administration, FIG. 6): reduced
